The test system of this experiment is QgIspS1-like (ΔTP-QgIspS1-like-6×His). In words: GC-MS. Format: biochemical, Quercus glauca. As to conditions: 20 mM MgCl2, 37 °C, 30 min; from formation of the main product trans-β-ocimene.

SMILES strings stand for the structures.

Consider `CC(C)=CCC/C(C)=C/COP(=O)(O)OP(=O)(O)O` [GPP], for which the Km (commonly the substrate concentration at which the rate is half of its maximum) is 180 ± 40 µM.

(Values after article doi:10.1101/2025.05.17.654689v2 (biorxiv, 2025).)
